Laboratory results from the NIST ThermoML archive (doi:10.1021/acs.jced.5b00303).
Numbers after ± are expanded uncertainties.

Settings: Pendant drop shape

`Cn1cc[n+](C)c1.N#C[B-](C#N)(C#N)C#N` [1,3-dimethylimidazolium tetracyanoborate] showed a surface tension liquid-gas (283.19 K) of 35.44 ± 0.8 mN/m, a surface tension liquid-gas (293.24 K) of 34.74 ± 0.78 mN/m and a surface tension liquid-gas (303.28 K) of 33.67 ± 0.76 mN/m. For the same compound, the surface tension liquid-gas (313.26 K) was 33.07 ± 0.75 mN/m, the surface tension liquid-gas (323.17 K) was 32.05 ± 0.72 mN/m and the surface tension liquid-gas (333.17 K) was 31.37 ± 0.71 mN/m. The surface tension liquid-gas (343.13 K) was 30.6 ± 0.69 mN/m and the surface tension liquid-gas (353.24 K) was 29.98 ± 0.68 mN/m.
Compound `CCCCn1cc[n+](C)c1.N#C[B-](C#N)(C#N)C#N` [1-butyl-3-methyl-1H-imidazolium tetracyanoborate] has a surface tension liquid-gas (283.23 K) of 45.23 ± 1 mN/m, a surface tension liquid-gas (293.23 K) of 44.64 ± 1 mN/m and a surface tension liquid-gas (303.3 K) of 43.65 ± 0.98 mN/m. It also gave a surface tension liquid-gas (313.24 K) of 42.62 ± 0.95 mN/m, a surface tension liquid-gas (323.24 K) of 41.71 ± 0.93 mN/m and a surface tension liquid-gas (333.2 K) of 40.81 ± 0.92 mN/m. It also gave a surface tension liquid-gas (343.22 K) of 39.87 ± 0.89 mN/m and a surface tension liquid-gas (353.3 K) of 39.08 ± 0.88 mN/m.
With `CCn1cc[n+](C)c1.N#C[C-](C#N)C#N` [1-ethyl-3-methyl-1H-imidazolium tricyanomethanide] the surface tension liquid-gas (283.18 K) was 51.1 ± 1.2 mN/m, the surface tension liquid-gas (293.25 K) was 50.4 ± 1.2 mN/m and the surface tension liquid-gas (303.24 K) was 49.39 ± 1.2 mN/m. It also gave a surface tension liquid-gas (313.1 K) of 48.62 ± 1.2 mN/m, a surface tension liquid-gas (323.08 K) of 47.83 ± 1.1 mN/m and a surface tension liquid-gas (333.17 K) of 47.19 ± 1.1 mN/m. For the same compound, the surface tension liquid-gas (343.09 K) was 46.55 ± 1.1 mN/m and the surface tension liquid-gas (353.36 K) was 44.68 ± 1.1 mN/m.
Work on `CCn1cc[n+](C)c1.N#C[B-](C#N)(C#N)C#N` [1-ethyl-3-methylimidazolium tetracyanoborate] yielded a surface tension liquid-gas (283.1 K) of 49.66 ± 1.1 mN/m, a surface tension liquid-gas (293.26 K) of 48.72 ± 1.1 mN/m and a surface tension liquid-gas (303.35 K) of 47.57 ± 1.1 mN/m. It also gave a surface tension liquid-gas (313.29 K) of 46.45 ± 1 mN/m, a surface tension liquid-gas (323.2 K) of 45.67 ± 1 mN/m and a surface tension liquid-gas (333.09 K) of 44.87 ± 1 mN/m. The surface tension liquid-gas (343.12 K) was 44.04 ± 0.99 mN/m and the surface tension liquid-gas (353.45 K) was 43.4 ± 0.97 mN/m.
With `CCCCCCn1cc[n+](C)c1.N#C[B-](C#N)(C#N)C#N` [1-hexyl-3-methylimidazolium tetracyanoborate] the surface tension liquid-gas (283.27 K) was 41.99 ± 0.94 mN/m, the surface tension liquid-gas (293.29 K) was 41.32 ± 0.93 mN/m and the surface tension liquid-gas (303.27 K) was 40.4 ± 0.91 mN/m. For the same compound, the surface tension liquid-gas (313.29 K) was 39.39 ± 0.88 mN/m, the surface tension liquid-gas (323.26 K) was 38.6 ± 0.87 mN/m and the surface tension liquid-gas (333.2 K) was 37.61 ± 0.85 mN/m. For the same compound, the surface tension liquid-gas (343.18 K) was 37 ± 0.83 mN/m and the surface tension liquid-gas (353.25 K) was 35.86 ± 0.81 mN/m.
`CCCCCCCCn1cc[n+](C)c1.N#C[B-](C#N)(C#N)C#N` [1-methyl-3-octylimidazolium tetracyanoborate] gave a surface tension liquid-gas (283.23 K) of 38.64 ± 0.87 mN/m, a surface tension liquid-gas (293.32 K) of 38.01 ± 0.85 mN/m and a surface tension liquid-gas (303.3 K) of 36.81 ± 0.83 mN/m. For the same compound, the surface tension liquid-gas (313.27 K) was 36.18 ± 0.81 mN/m, the surface tension liquid-gas (323.23 K) was 35.19 ± 0.79 mN/m and the surface tension liquid-gas (333.18 K) was 34.15 ± 0.77 mN/m. The surface tension liquid-gas (343.21 K) was 33.44 ± 0.75 mN/m and the surface tension liquid-gas (353.28 K) was 32.41 ± 0.73 mN/m.
`CCCCCCCCn1cc[n+](C)c1.N#CC(=C=[N-])C#N` [1-methyl-3-octylimidazolium tricyanomethanide] gave a surface tension liquid-gas (283.28 K) of 40.07 ± 0.96 mN/m, a surface tension liquid-gas (293.21 K) of 39.03 ± 0.94 mN/m and a surface tension liquid-gas (303.32 K) of 38.38 ± 0.92 mN/m. For the same compound, the surface tension liquid-gas (313.21 K) was 37.65 ± 0.91 mN/m, the surface tension liquid-gas (323.12 K) was 36.89 ± 0.89 mN/m and the surface tension liquid-gas (333.1 K) was 36.09 ± 0.87 mN/m. It also gave a surface tension liquid-gas (343.16 K) of 35.31 ± 0.85 mN/m and a surface tension liquid-gas (353.03 K) of 34.89 ± 0.84 mN/m.
With `CCCCCC[n+]1ccn(C)c1.N#C[C-](C#N)C#N` [3-hexyl-1-methylimidazolium tricyanomethanide] the surface tension liquid-gas (283.23 K) was 44.44 ± 1.1 mN/m, the surface tension liquid-gas (293.35 K) was 43.55 ± 1 mN/m and the surface tension liquid-gas (303.33 K) was 42.88 ± 1 mN/m. The surface tension liquid-gas (313.26 K) was 42.09 ± 1 mN/m, the surface tension liquid-gas (323.25 K) was 41.49 ± 1 mN/m and the surface tension liquid-gas (333.18 K) was 40.8 ± 0.98 mN/m. For the same compound, the surface tension liquid-gas (343.11 K) was 39.91 ± 0.96 mN/m and the surface tension liquid-gas (353.53 K) was 39.07 ± 0.94 mN/m.
